# Results: patent EP4803080A1, “METHOD FOR TREATING LEUKEMIA” (Shenzhen TargetRx Co., Ltd., priority 2023, dated 2025)
# Like-named read-outs stand apart in the source and are kept apart here.
# How the values were obtained:
# [1] = tested on: Ba/F3 BCR-ABL1 Q252H/T315I; experiment: Cell growth inhibition activity test, single agents and combinations (CellTiter-Glo, Chou-Talalay); assay type: cell-based, mouse; details: for IC50: Mus musculus, BaF3, 72 h
# Procedure: (§1) A series of cell lines expressing BCR-ABL1 single mutations and compound mutations were constructed based on the Ba/F3 mouse pro-B cell line.
# (§2) This assay utilized the CellTiter-Glo (CTG) kit provided by Promega, which is a homogeneous method for cell viability detection, measuring the viability of cultured cells by quantifying ATP. Cells were seeded in 96-well plates and treated with different concentrations of test substances. […] At the end of the treatment, CTG reagent (CellTiter-Glo kit) was added according to the manufacturer's instructions to detect cell viability values. Plates were read on a microplate reader (Biotek cytation 3.0). IC50 values were calculated using GraphPad Prism 7.0 software.
# [2] = tested on: Ba/F3 BCR-ABL1 Y253H/T315I; experiment: as above; assay type: cell-based, mouse; details: Mus musculus; for IC90: Fig. 3
# Procedure: as §1, §2
# [3] = tested on: Ba/F3 BCR-ABL1 E255V/T315I; experiment: as above; assay type: cell-based; details: Mus musculus, BaF3, 72 h
# Procedure: as §1, §2
# [4] = tested on: Ba/F3 BCR-ABL1 T315M; experiment: as above; assay type: cell-based, mouse
# Procedure: as §1, §2
# [5] = Tissue distribution study using quantitative whole-body autoradiography (QWBA); assay type: in vivo, Long-Evans rats and Sprague-Dawley rats; details: single oral 50 mg/100 µCi/kg
# Procedure: This test utilized a total of 8 male Long Evans (LE) rats, randomly designated as Gt1M01 to Gt1M08; and 4 Sprague-Dawley (SD) rats, with an equal number of males and females, randomly designated as Gt2M01 to Gt2M02 and Gt2F01 to Gt2F02. Each rat received a single oral dose of 50 mg/100 µCi/kg of [^14C]-Compound A via gavage. SD rats were euthanized at 4 hours and 72 hours post-dose (with the 72-hour rats serving as backups); LE rats were euthanized at 0.5 hours, 4 hours, 24 hours, 72 hours, 168 hours, 336 hours, 504 hours, and 840 hours post-dose (with the 504-hour and 840-hour rats serving as backups). According to the rat sequence numbers, one male and one female SD rat and one male LE rat were transferred to an induction chamber, euthanized with an overdose of carbon dioxide, and about 4 mL of whole blood was collected via cardiac puncture. Immediately after blood collection, the carcasses were immersed in a dry ice-hexane bath for freezing and fixation.
# Plasma samples were obtained by low-temperature centrifugation of whole blood. After homogenization, aliquots of each plasma sample were mixed directly with scintillation fluid, and the radioactivity was measured using a liquid scintillation counter (LSC). Frozen carcasses were sectioned, dried, and exposed/developed to determine total radioactivity in tissues/regions (including gastrointestinal contents). Pharmacokinetic parameters for total radioactivity in plasma and tissues were calculated using a non-compartmental model with WinNonLin software (version 8.3, Certara). After development of sections at each time point, 46 tissues/regions (including gastrointestinal contents) were analyzed for LE rats, and 45 tissues/regions (including gastrointestinal contents) were analyzed for SD rats. The radioactivity concentrations in unanalyzed regions were all lower than the lowest concentration in the analyzed tissues or regions.
# [6] = clinical dose of 45 mg QD; cited from earlier work
compound,measurement,setting,value
Cc1ccc(C(=O)Nc2ccc(CN3CCN(C)CC3)c(C(F)(F)F)c2)cc1C#Cc1cnc2[nH]ncc2c1 [olverembatinib],IC50,[1],0.0077 ± 1e-05 µM
same,IC50,"[2]; BaF3, 72 h, read-out: IC50^I1",0.0369 µM
same,IC50,"[2]; BaF3, read-out: IC50^I2",0.00544 µM
same,IC50,[3],0.0258 ± 0.0029 µM
Cc1ncc(NC(=O)c2ccc(CN3CCN(C)CC3)c(C(F)(F)F)c2)cc1Nc1nccc(-c2cccnc2)n1 [flumatinib],IC50,"[2]; BaF3, 72 h, single agent, Y253H/T315I, 72 hours, read-out: IC50",8.42 ± 0.245 µM
COc1cc(Nc2c(C#N)cnc3cc(OCCCN4CCN(C)CC4)c(OC)cc23)c(Cl)cc1Cl [bosutinib],IC50,[1],3.13 ± 0.0099 µM
same,IC50,"[4]; Mus musculus, BaF3, 72 h",3.97 ± 0.151 µM
same,IC50,"[2]; BaF3, 72 h",3.715 ± 0.0099 µM
same,IC50,[3],3.92 ± 1.38 µM
O=C(Nc1ccc(OC(F)(F)Cl)cc1)c1cnc(N2CC[C@@H](F)C2)c(-c2cnccn2)c1 [[14C]-Compound A],"Total Radioactivity, Plasma","[5]; Female SD rats, 4 hrs",15320 ng Eq./g
same,"Total Radioactivity, Whole brain","[5]; Female SD rats, 4 hrs",9800 ng Eq./g
same,"Total Radioactivity, Plasma","[5]; Male LE rats, 0.5 hrs",7131 ng Eq./g
same,"Total Radioactivity, Whole brain","[5]; Male LE rats, 0.5 hrs",4885 ng Eq./g
same,"Total Radioactivity, Plasma","[5]; Male LE rats, 4 hrs",11981 ng Eq./g
same,"Total Radioactivity, Whole brain","[5]; Male LE rats, 4 hrs",6950 ng Eq./g
same,"Total Radioactivity, Plasma","[5]; Male SD rats, 4 hrs",10656 ng Eq./g
same,"Total Radioactivity, Whole brain","[5]; Male SD rats, 4 hrs",6400 ng Eq./g
Cc1ccc(C(=O)Nc2ccc(CN3CCN(C)CC3)c(C(F)(F)F)c2)cc1C#Cc1cnc2cccnn12 [ponatinib],inhibition of cell viability,"[1]; single-agent ponatinib at 60 nM and 48 nM, Fig. 5",could be inhibited
same,anti-proliferative effect,"[4]; single-agent ponatinib, Fig. 6",no anti-proliferative effect
same,IC90,"[2]; BaF3, read-out: IC90 value of ponatinib, ponatinib in combination with asciminib",0.165 µM
same,IC90,"[2]; BaF3, read-out: IC90 value of ponatinib, ponatinib in combination with compound A",0.0609 µM
same,minimum plasma concentration at steady state (Cssmin),[6],64.3 nM
